Assays:
[1] = test system: ECHCG (Echinochloa crusgalli, barnyardgrass); test: In-water applied mixtures, transplanted paddy rice, greenhouse; assay type: in vivo, Echinochloa crusgalli (L.) Beauv.; conditions: 21 DAA
Method: Weed seeds or nutlets of the desired test plant species were planted in puddled soil (mud) prepared by mixing a shredded, non-sterilized mineral soil (50.5 percent silt, 25.5 percent clay, and 24 percent sand, with a pH of about 7.6 and an organic matter content of about 2.9 percent) and water at a 1:1 volumetric ratio. The prepared mud was dispensed in 365 mL aliquots into 16-ounce (oz.) non-perforated plastic pots with a surface area of 86.59 square centimeters (cm^2) leaving a headspace of 3 centimeters (cm) in each pot Mud was allowed to dry overnight prior to planting or transplanting. Rice seeds were planted in Sun Gro MetroMix® 306 planting mixture, which typically has a pH of 6.0 to 6.8 and an organic matter content of about 30 percent, in plastic plug trays. Seedlings at the second or third leaf stage of growth were transplanted into 840 mL of mud contained in 32-oz. non-perforated plastic pots with a surface area of 86.59 cm^2 4 days prior to herbicide application. The paddy was created by filling the headspace of the pots with 2.5 to 3 cm of water. When required to ensure good germination and healthy plants, a fungicide treatment and/or other chemical or physical treatment was applied. The plants were grown for 4-22 days in a greenhouse with an approximate 14 h photoperiod which was maintained at about 29° C during the day and 26° C. during the night. Nutrients were added as Osmocote® (19:6:12, N:P:K+ minor nutrients) at 2 g per 16-oz. pot and 4 g per 32-oz. pot. Water was added on a regular basis to maintain the paddy flood, and supplemental lighting was provided with overhead metal halide 1000-Watt lamps as necessary. The plants were employed for testing when they reached the first through fourth true leaf stage. […]
Treatment requirements for each compound or herbicidal component were calculated based upon the rates being tested, the concentration of active ingredient or acid equivalent in the formulation, an application volume of 2 mL per component per pot, and an application area of 86.59 cm^2 per pot.
For formulated compounds, a measured amount was placed in an individual 100 or 200 mL glass vial and was dissolved in a volume of 1.25% (v/v) Agri-Dex® crop oil concentrate to obtain application solutions. […]
The treated plants and control plants were placed in a greenhouse as described above and water was added as needed to maintain a paddy flood. After approximately 3 weeks the condition of the test plants as compared with that of the untreated plants was determined visually and scored on a scale of 0 to 100 percent where 0 corresponds to no injury or growth inhibition and 100 corresponds to complete kill. […]

[2] = test system: SASKR (Salsola tragus, Russian thistle); test: Postemergence herbicidal activity of mixtures in cereal crops, greenhouse; assay type: in vivo, Salsola tragus L.
Method: Seeds of the desired test plant species were planted in Sun Gro MetroMix® 306 planting mixture, which typically has a pH of 6.0 to 6.8 and an organic matter content of about 30 percent, in plastic pots with a surface area of 103.2 square centimeters (cm^2). When required to ensure good germination and healthy plants, a fungicide treatment and/or other chemical or physical treatment was applied. The plants were grown for 7-36 days in a greenhouse with an approximate 14 hour photoperiod which was maintained at about 18° C. during the day and about 17° C. during the night. Nutrients and water were added on a regular basis and supplemental lighting was provided with overhead metal halide 1000-Watt lamps as necessary. The plants were employed for testing when they reached the second or third true leaf stage.
Treatments consisted of the benzyl ester of 4-amino-3-chloro-5-fluoro-6-(4-chloro-2-fluoro-3-methoxy-phenyl)pyridine-2-carboxylic acid (Compound A), formulated as an SC, a second cereal herbicide alone and then both in combination.
Other herbicidal components were applied on an active ingredient basis and included PSII-inhibiting herbicides.
Measured aliquots of benzyl ester of 4-amino-3-chloro-5-fluoro-6-(4-chloro-2-fluoro-3-methoxy-phenyl)pyridine-2-carboxylic acid (Compound A) were placed in 25 milliliter (mL) glass vials and diluted in a volume of 1.25% (v/v) Agri-Dex® crop oil concentrate to obtain stock solutions. Compound requirements are based upon a 12 mL application volume at a rate of 187 liters per hectare (L/ha). Spray solutions of the second cereal herbicide and experimental compound mixtures were prepared by adding the stock solutions to the appropriate amount of dilution solution to form 12 mL spray solution with active ingredients in two- and three-way combinations. Formulated compounds were applied to the plant material with an overhead Mandel track sprayer equipped with an 8002E nozzle calibrated to deliver 187 L/ha over an application area of 0.503 square meters (m^2) at a spray height of 18 inches (46 cm) above average plant canopy. Control plants were sprayed in the same manner with the solvent blank.
The treated plants and control plants were placed in a greenhouse as described above and watered by sub-irrigation to prevent wash-off of the test compounds. After 20-22 days, the condition of the test plants as compared with that of the control plants was determined visually and scored on a scale of 0 to 100 percent where 0 corresponds to no injury and 100 corresponds to complete kill.
Colby's equation was used to determine the herbicidal effects expected from the mixtures (Colby, S. R. 1967. Calculation of the synergistic and antagonistic response of herbicide combinations. Weeds 15:20-22).
The following equation was used to calculate the expected activity of mixtures containing two active ingredients, A and B: Expected=A+B−(A×B/100)

Compound	Visual Weed Control (%) Obs ([1]; 8.75 g ae/ha) [%]	Visual Weed Control (%) Obs ([1]; 17.5 g ae/ha) [%]	Visual Weed Control (%)-21 DAA SASKR Obs ([2]; Compound A Benzyl Ester 2.5 g ai/ha) [%]	Visual Weed Control (%)-21 DAA SASKR Obs ([2]; Compound A Benzyl Ester 5 g ai/ha) [%]	Visual Weed Control (%)-21 DAA SASKR Obs ([2]; Compound A Benzyl Ester 10 g ai/ha) [%]
COc1c(Cl)ccc(-c2nc(C(=O)O)c(Cl)c(N)c2F)c1F [Compound A Acid, 4-amino-3-chloro-6-(4-chloro-2-fluoro-3-methoxyphenyl)-5-fluoropyridine-2-carboxylic acid]	0	0	–	–	–
COc1c(Cl)ccc(-c2nc(C(=O)OCc3ccccc3)c(Cl)c(N)c2F)c1F [Compound A Benzyl Ester, benzyl ester of 4-amino-3-chloro-5-fluoro-6-(4-chloro-2-fluoro-3-methoxy-phenyl)pyridine-2-carboxylic acid]	–	–	15	50	67

From US8912121B2, “Herbicidal compositions comprising 4-amino-3-chloro-5-fluoro-6-(4-chloro-2-fluoro-3-methoxyphenyl)pyridine-2-carboxylic acid or a derivative thereof and certain PS II inhibitors” (Dow Agrosciences LLC, priority 2012, dated 2014)
